Source: ChEMBL document CHEMBL1157104 (J Med Chem, 2010)

How the values were obtained:
[1] = biological target: T1, Progesterone receptor (Homo sapiens, UniProt P06401); assay: Binding affinity to progesterone receptor
T1 sequence (P06401 whole entry): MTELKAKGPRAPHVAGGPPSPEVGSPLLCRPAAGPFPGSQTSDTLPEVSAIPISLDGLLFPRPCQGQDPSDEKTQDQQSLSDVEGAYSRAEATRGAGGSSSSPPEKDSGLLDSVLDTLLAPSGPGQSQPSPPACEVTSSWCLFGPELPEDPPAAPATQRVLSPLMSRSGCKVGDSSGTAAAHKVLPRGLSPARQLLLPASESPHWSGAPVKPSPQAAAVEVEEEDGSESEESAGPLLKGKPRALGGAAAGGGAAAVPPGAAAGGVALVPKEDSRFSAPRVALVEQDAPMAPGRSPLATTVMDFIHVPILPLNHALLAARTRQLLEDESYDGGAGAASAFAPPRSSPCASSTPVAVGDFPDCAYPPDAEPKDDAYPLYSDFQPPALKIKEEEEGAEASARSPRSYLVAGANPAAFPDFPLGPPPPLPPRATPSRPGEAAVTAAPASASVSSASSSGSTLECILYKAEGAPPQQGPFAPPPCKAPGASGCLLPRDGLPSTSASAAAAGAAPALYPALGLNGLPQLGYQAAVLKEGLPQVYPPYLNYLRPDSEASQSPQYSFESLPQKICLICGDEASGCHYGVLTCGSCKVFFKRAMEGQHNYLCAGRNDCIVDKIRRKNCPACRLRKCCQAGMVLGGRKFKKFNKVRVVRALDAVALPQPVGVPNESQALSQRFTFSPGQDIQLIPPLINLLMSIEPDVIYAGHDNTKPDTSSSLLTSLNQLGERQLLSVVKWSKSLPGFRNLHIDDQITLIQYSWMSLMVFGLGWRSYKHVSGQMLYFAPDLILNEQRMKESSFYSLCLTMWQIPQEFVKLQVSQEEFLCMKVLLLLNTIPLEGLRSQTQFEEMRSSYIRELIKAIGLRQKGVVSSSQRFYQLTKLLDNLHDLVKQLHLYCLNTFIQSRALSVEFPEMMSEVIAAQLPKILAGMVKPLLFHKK

[2] = biological target: T2, Progesterone receptor (Homo sapiens) (UniProt P06401); assay: Binding affinity to progesterone receptor relative to R5020
T2 sequence (whole entry): T1 sequence (P06401 whole entry)

CCC(=O)[C@@]1(C)CC[C@H]2[C@@H]3CCC4=CC(=O)CCC4=C3CC[C@@]21C [PROMEGESTONE]
Kd [1]: 0.4 nM

CC1(C)OC(=S)Nc2ccc(-c3ccc(C#N)n3CCF)cc21
relative binding affinity (RBA) [2]: 18.5

CC1(C)OC(=S)Nc2ccc(-c3ccc(C#N)n3CCCF)cc21
relative binding affinity (RBA) [2]: 0.99
